Here are results for one compound from patent US20050112128A1, “Inhibition of protein kinase c-mu (PKD) as a treatment for cardiac hypertrophy and heart failure” (Myogen, Inc. and Board of Regents, The University of Texas …, priority 2003, published 2005).

“Also recorded” adds a separate entry of the source.

For experiment [1], the system named is nuclear export of HDAC5 in COS cells. Description: GFP-HDAC5 nuclear export in transfected COS cells (fluorescence microscopy). The experiment is classed as cell-based. The procedure:
(§1) FIGS. 1A-D—PKC-dependent nuclear export of HDAC5. FIG. 1A. COS cells were cultured on 6-well dishes, transfected with a GFP-HDAC5 expression vector (1 μg) and stimulated with the indicated compounds, as described in Materials and Methods. Sixty minutes after addition of compounds, GFP-HDAC5 distribution was determined by fluorescence microscopy. […] FIG. 1B. COS cells were transfected with expression vectors encoding FLAG-tagged versions of either HDAC5 or an HDAC5 mutant harboring alanines in place of serines 259 and 498 (HDAC5 S259/498A) (1 μg each). Cells were stimulated with PMA for 60 min and HDAC5 distribution was determined by indirect immunofluorescence with anti-FLAG primary antibody and fluorecein-conjugated secondary antibody. HDAC5 259/498A is refractory to PMA stimulation. FIG. 1C. COS cells transfected with GFPHDAC5 encoding expression vector (1 μg) and stimulated with PMA for the indicated times. FIG. 1D. COS cells were transiently transfected with expression vectors encoding FLAG-tagged versions of HDAC5 or HDAC5 S259/498A (1 μg each). Cells were pretreated with the PKC inhibitor bisindolylmaleimide (Bis I; 10 μM) for 30 minutes and stimulated with PMA for 30 min, as indicated. Association of FLAG-HDAC5 with endogenous 14-3-3 was detected by sequential immunoprecipitation and immunoblotting.
Cell culture and transfection assays. COS cells were maintained in DMEM with FBS (10%), L-glutamine (2 mM), and penicillin-streptomycin. Transfection of COS cells was performed with Fugene 6 (Roche Molecular Biochemicals) according to manufacturer's instructions. For HDAC localization experiments, cells were treated 16-24 hours after transfection with PMA (100 nM), ionomycin […], 8-Br-cAMP (1 mM), pCPT-GMP (1 mM), or anisomycin (1 mM). Where noted, specific protein kinase inhibitors were added 30 min prior to the addition of any chemical stimulus. GFP-HDAC5 was visualized with standard fluorescent microscopic techniques. For indirect immunofluorescence of FLAG-HDAC5, COS cells were seeded on glass coverslips, transfected, and treated as above. After specific treatment, cells were fixed with buffered formalin (10%) and stained in PBS containing BSA (3%) and Nonidet P-40 (0.1%). Flag M2 antibody (Sigma) was used at a concentration of 1:200. Secondary fluoresceine-conjugated antibody (Vector Laboratories) was also used at a concentration of 1:200. Staining of cardiomyocytes for sarcomeres and atrial natriuretic factor (ANF) was performed by indirect immunofluorescence detection as above with antibodies directed against sarcomeric α-actinin (Sigma) and ANF (Peninsula Laboratories), respectively.

Experiment [2] has as its system PKD. Description: In vitro kinase assay with FLAG-HDAC5 immunoprecipitated from COS cells co-transfected with PKD. The experiment is classed as cell-based. The following applies: PMA 30 min. The text has this: FIGS. 5A-E—Protein kinase D is an HDAC5 kinase. FIG. 5A. Amino acid sequences surrounding the regulatory phosphorylation sites of class II HDACs. NLS: nuclear localization signal; HDAC domain: deacetylase catalytic domain. The consensus target site for PKD is shown. Leucine at position −5 relative the phosphorylation site is required for optimal PKD-directed phosphorylation of other proteins. FIG. 5B. COS cells were transfected with an expression vector encoding GFP fused to HDAC5 harboring glycines in place of leucines 254 and 493 (L254/493G). Twenty-four hrs post-transfection, cells were left untreated (control) or stimulated with PMA for 30 minutes. FIG. 5C. […] HDAC5 localization was determined 24 hrs post-transfection. FIG. 5D. […] Twenty-four hrs post-transfection, cells were treated with PMA or vehicle control for 30 min. FLAG-HDAC5 was immunoprecipitated from whole-cell protein lysates and either incorporated into an in vitro kinase assay (IVK) or resolved by SDS-PAGE for western blot analysis to detect associated PKD, as indicated. Phosphorylated HDAC5 was resolved by SDS-PAGE and detected by autoradiography. FIG. 5E. Mammalian two-hybrid assay. […]

The subject of experiment [3] is NRVMs. Description: ANF immunostaining of cardiomyocytes (hypertrophy marker). It counts as cell-based, rat. The following applies: PE 20 μM or PMA 100 nM, 24 hrs. Here is the method:
FIGS. 3A-C—Inhibition of PKC-mediated cardiac hypertrophy by signalresistant HDAC5. NRVMs were cultured on 6-well dishes and infected with adenoviruses (MOI=10) encoding a LacZ control (Ad-LacZ) or FLAG-tagged HDAC5 harboring alanines in place of serines 259 and 498 (Ad-HDAC5 S/A), which are required for 14-3-3-mediated nuclear export. Cells were treated with PE (20 μM) or PMA (100 nM) for 24 hrs prior to analysis. FIG. 3A. Cells were fixed and sarcomeres visualized by indirect immunofluorescence with primary antibody specific for α-actinin and fluorescein-conjugated secondary antibody. FIG. 3B. ANF protein was detected by indirect immunofluorescence with anti-ANF primary antibody. FIG. 3C. Total RNA was harvested from cells and subjected to dot blot analysis with radiolabeled oligonucleotides specific for the indicated transcripts. RNA levels were quantified using a phosphorimager and are depicted as -fold change relative to amounts in unstimulated cells infected with Ad-LacZ. Values were normalized to GAPDH controls.
Cell culture and transfection assays. COS cells were maintained in DMEM with FBS (10%), L-glutamine (2 mM), and penicillin-streptomycin. Transfection of COS cells was performed with Fugene 6 (Roche Molecular Biochemicals) according to manufacturer's instructions. […]

For experiment [4], the system named is HDAC5-bound PKD. It counts as biochemical, rat. The following applies: NRVMs infected with Ad-FLAG-HDAC5; PMA 30 min.
The subject of experiment [5] is association of 14-3-3 with HDAC5. Description: Co-immunoprecipitation of FLAG-HDAC5 with endogenous 14-3-3 in COS cells. The following applies: FLAG-HDAC5, PMA 30 min. It counts as cell-based. The procedure:
as §1, with “COS cells were transiently transfected with expression vectors encoding FLAG-tagged versions of HDAC5 or HDAC5 S259/498A (1 μg each). Cells were pretreated with the PKC inhibitor bisindolylmaleimide (Bis I; 10 μM) for 30 minutes and stimulated with PMA for 30 min, as indicated.” left out
Co-immunoprecipitation assays. […] Associated PKD was detected by immunoblotting with rabbit polyclonal antibodies against either PKD-1, PKD-1 phosphorylated at serines 744 and 748, or PKD-1 phosphorylated at serine 916 (Cell Signaling Technologies) were employed at 1:1000 dilutions.

Regarding `CCCCCCCCCCCCCC(=O)O[C@@H]1[C@@H](C)[C@@]2(O)[C@@H](C=C(CO)C[C@]3(O)C(=O)C(C)=C[C@@H]23)[C@@H]2C(C)(C)[C@]12OC(C)=O` [PMA, Phorbol 12-myristate 13-acetate], in experiment [1] (COS cells transfected with GFP-HDAC5, 60 min after addition of compounds), the “stimulation of nuclear export of GFP-HDAC5” value was “complete relocalization of GFP-HDAC5 from the nucleus to the cytoplasm; also recorded: stimulated nuclear export of GFP-HDAC5; also recorded: more potent stimulator of export than ionomycin”. In addition, in experiment [1] (COS cells, GFP-HDAC5), the “time to complete HDAC5 nuclear export following addition of PMA” value is at most 30 min and the “time to initiation of HDAC5 nuclear export following addition of PMA” value is at most 15 min. The “HDAC5 phosphorylation after PMA, activated PKD S/E co-transfected” value in experiment [2] (FLAG-HDAC5 + PKD S/E) is “enhanced phosphorylation of HDAC5”. In experiment [2] (FLAG-HDAC5 + PKD), the “HDAC5 phosphorylation after PMA, wild-type PKD co-transfected” value is “increased the degree of HDAC5 phosphorylation”. Moreover, in experiment [3], the ANF protein expression result was “prominent perinuclear ANF protein expression”. For the same compound, in experiment [4], the “HDAC5 phosphorylation after treatment of cells with PMA” value is “Increased HDAC5 phosphorylation”. For the same compound, in experiment [5], the “association of 14-3-3 with HDAC5” value is “enhanced”.
